# Data reported in patent publication US9944989B2, “Micrornas as new therapeutic targets for the prevention and/or treatment of retinopathy” (RUSH UNIVERSITY MEDICAL CENTER, priority 2010, dated 2018).
# What was measured:
# NF-κB [1] = experiment: Thrombin-induced miR-146a/b expression (qRT-PCR) in HRECs, with or without Bay11-7082; format: cell-based, human
# Excerpt: miR-146 is a NF-κB-responsive miRNA, and can be induced by IL-1R/TLR mediated NF-κB activation. GPCR-mediated NF-κB activation also induces the expression of miR-146.
# Upregulation of miR-146a/b by thrombin treatment is a result of NF-κB activation.
# (§1) Cell culture and treatment. Primary Human Retinal Endothelial Cells (HRECs) (Passage 3-6) and HEK293 cells were purchased from Applied Cell Biology Res Institute (Kirkland, Wash.) and American Type Culture Collection (ATCC), respectively. HRECs were maintained in EGM2-MV media with 5% of FBS (Lonza) in flasks coated with attachment factor (Invitrogen) or plates coated with fibronectin (Sigma). For thrombin treatment, HRECs were serum starved in EGM2-MV media with 1% FBS overnight, and then treated with thrombin (5 U/ml) (Sigma. Cat. T4393) for 5-8 hours, followed by RNA harvesting, leukocyte adhesion and other assays; for IL-1β treatment, after overnight serum starvation, HRECs was incubated with 10 ng/ml IL-1β (Sigma) for 4 hours. When NF-κB specific inhibitor Bay11-7082 was used, HRECs was incubated with Bay11-7082 (3 μM) (Sigma) for 30 minutes prior to treatment with either thrombin or IL-1β.
# RNA preparation and quantitative RT-PCR. Total RNA was prepared using miRVana miRNA isolation kit (Ambion) (Kovacs et al., 2011). qRT-PCR of miRNAs was performed using TaqMan microRNA Assays (Applied Biosystems), with snRNA U6 as normalization control. qRT-PCR of mRNAs of was performed using QuantiTect Primer Assays and QuantiFast SYBR Green RT-PCR Kit (Qiagen), with 18s rRNA as normalization control. Two tailed t test was used to determine significance of differences.
# NF-κB activation = experiment: Thrombin-induced NF-κB downstream genes (ICAM-1, VCAM-1, MCP1) by qRT-PCR in HRECs; format: cell-based, human; conditions: thrombin treatment
# Protocol: Thrombin-dependent NF-κB activation is mediated by the CARD10-Bc110-MALT1 signalosome. If miR-146 targets CARD10, one of the key components of the signalosome of the GPCR-mediated NF-κB activation pathway, miR-146 should have an inhibitory effect on GPCR-mediated NF-κB activation in HRECs. HRECs were transfected with miR-146a mimic or negative control oligos with scrambled sequences; 24 hour after the transfection, the cells were treated with thrombin.
# To determine whether miR-146's inhibition on thrombin-mediated NF-κB activation is mediated by its repression on CARD10, HRECs were transfected with human CARD10-expressing constructs (Genecopoeia) before miR-146a mimic transfection and thrombin treatment.
# as §1
# miR-146a mimic, anti-miR-146a and plasmid transfection. […]
# RNA preparation and quantitative RT-PCR. Total RNA was prepared using miRVana miRNA isolation kit (Ambion) (Kovacs et al., 2011). qRT-PCR of miRNAs was performed using TaqMan microRNA Assays (Applied Biosystems), with snRNA U6 as normalization control. qRT-PCR of mRNAs of was performed using QuantiTect Primer Assays and QuantiFast SYBR Green RT-PCR Kit (Qiagen), with 18s rRNA as normalization control. […]
# HRECs = experiment: Leukocyte adhesion to HRECs; format: cell-based, human; conditions: scrambled control-treated HRECs, thrombin treatment
# Protocol: Leukocyte adhesion to HRECs. Leukocyte adhesion assays were performed (Huang et al., 2007; O'Donnell, 2011) with minor modifications. Briefly, blood from healthy human volunteers was collected according to a approved IRB protocol to isolate leukocytes. Leukocytes were labeled with 5 μM Calcein/acetomethoxy (AM) (Invitrogen). HRECs were transfected with miR-146a mimics or negative control oligo duplex with scrambled sequences for 48 hours before thrombin treatment (5 U/ml). Eight hours after thrombin treatment, 10^5 calcein-labeled leukocytes were added onto the HREC monolayer and incubated for 2 hours at 37 C. Subsequently, the cells were gently rinsed with PBS to wash off leukocytes unattached to HRECs; the number of Calcein-AM labeled neutrophils attached to HRECs were counted by fluorescence microscopy. In addition, the fluorescence from the adherent leukocytes on HRECs was measured with a Cytofluor plate reader (PreSeptive Biosystems).
# miRNAs in the vitreous = experiment: miRNA expression profiling (TaqMan rodent miRNA microarray) of the vitreous of STZ-induced diabetic and normal control rats; parameters: species or system rat; conditions: two weeks after the onset of diabetes, average delta Ct
# Protocol: Isolation of vitreous RNA from STZ-induced diabetic and normal control rats: 2 weeks after STZ-induced diabetes, 3 diabetic and 3 normal control rats were sacrificed and their eyeballs harvested. In cold PBS, the eyeballs were dissected to collect the vitreous bodies, the retinas and the lens, total RNA was prepared using the mirVana miRNA isolation kit (Ambion). The yield of total RNA from vitreous body was ˜764 ng and 1125 ng total RNA/vitreous of control and diabetic rats, respectively. […]
# miRNA microarray assays and data analyses. […] Three independent sets of miRNA profiling were performed for each experimental condition Amplification data were created by the SDS2.3 program (Applied Biosystems) and further analyzed using RQ Manager software (Applied Biosystems) and StatMiner v. […] There were three replicate assays for each miRNA on the array. miRNAs with Ct<40 in at least two out of the three replicates were accepted as “detected”. […] Normalized expression level of each miRNA was calculated as DCt or ΔCt=Ct(miRNA)-Ct(snRNA U6). The average DCt from three microarray assays was calculated as the relative expression level of each miRNA. The differential expression of each miRNA from samples of diabetic rats and normal controls was calculated as: DDCt or Δ(ΔCt)=Ave DCt (diabetic)—Ave DCt (control). Fold of change was calculated as 2^−Δ(ΔCt). […]
# NF-κB [2] = experiment: miR-146a expression (qRT-PCR) in rat RECs (TR-iBRB2) treated with IL-1β or TNFα, with or without Bay11-7082; format: cell-based; conditions: for miR-146a expression: rat RECs (TR-iBRB2), 10 ng/ml, four hours and 24 hours after treatment
# Protocol: In diabetic retinas, hyperglycemia-induced increased production of ROS and proinflammatory cytokines work in concert to activate NF-κB in RECs. Both IL-1β and TNF-α are shown to activate NF-κB in RECs. Upregulation of miR-146a is a result of NF-κB activation. Rat RECs (the TR-iBRB2 cells) were treated with IL-1β (10 ng/ml) and TNF-α (10 ng/ml). […] The extent of upregulation of miR-146a was further increased from 4-hour to 24-hour treatments. […] It is noteworthy that there is a moderate, but significant increased expression of miR-146a by IL-1β in the presence of Bay11-7082, compared to non-treated negative controls.
# Quantitative (q)RT-PCR. qRT-PCR analysis of miRNAs was performed using TaqMan microRNA Assays according to the manufacturer's protocol (Applied Biosystems). Approximately 8 ng of total RNA was used for each reaction. snRNA U6 was used for normalization control. qRT-PCR analysis on mRNAs of IRAK1, TRAF6, ICAM-1, and MCP-1 was performed using the QuantiTect Primer Assay with QuantiFast SYBR Green RT-PCR Kit (Qiagen, Valencia, Calif.) ˜10 ng total RNA was used in each reaction. 18S rRNA was amplified as normalization control. All data are expressed as mean±SEM. Student's t-test was used to determine significance (p<0.05).
# (§2) Rat REC culture and treatment with proinflammatory factors. Rat RECs—the Transgenic-inner Blood-Retinal Barrier (Tr-iBRB) cells were kindly provided by Drs. Tetsuya Terasaki, Tohoku University, and Ken-ichi Hosoya, University of Toyama, Japan. The Tr-iBRB cells were derived from RECs of transgenic rats harboring the temperature-sensitive SV40 large T-antigen (tsA58Tg rats). At 33° C., they are immortalized and proliferate because of the expression of large T-antigen. At 37° C., they stop proliferation due to loss of large T-antigen and differentiate into authentic retinal ECs, which have spindle fiber shapes, with typical endothelial and REC-specific markers and endothelial properties and REC-specific functions. iTr-iBRB cells were expanded at 33° C. on collagen-coated (50 μg/ml) plates in complete EC culture medium (DMEM with 70 mg/L benzylpenicillin potassium, 100 mg/L streptomycin sulfate, 10% heat-inactivated FBS and endothelial-cell growth factor (ECGF) (1:100, Sigma). Glucose concentration in the medium was 5.5 mM. Approximately 100,000 cells/60 mm plate were grown in complete medium at 37° C. for 48 hours. Cells were serum starved in DMEM+0.2% FBS for 16 hours before treatment of IL-1β (10 ng/ml, Sigma), TNFα (10 ng/ml, Sigma), or NF-κB inhibitor, Bay11-7082 (3 μM. Calbiochem) for 4 or 24 hours. Subsequently, the cells were harvested for total RNA, protein lysate preparation, or immunofluorescence.
# NF-κB p65 = experiment: NF-κB activation by immunofluorescence of p65 subunit in rat RECs; format: cell-based; conditions: IL-1β or TNFα 10 ng/ml, 30 minutes after treatment
# Protocol: as §2
# Detection of NF-κB activation by immunofluorescence of p65 subunit. 30 min following cytokine treatment, cells were fixed with 4% paraformaldehyde for 20 min. After blocking with 10% normal donkey serum (NDS) in PBS for 1 hour at room temperature, cells were incubated with anti-p65 antibody (Santa Cruz) at 4° C. overnight. Cells were incubated in Alexa fluor-conjugated secondary antibody (1:400) in 3% NDS. Nuclei of the cells were labeled with Hoechst nuclear dye (1:500). Subsequently, the cells were observed under an Axioplan2 fluorescent microscope (Zeiss).
# [3] = test system: human retinal endothelial cells (HRECs); experiment: Transendothelial electrical resistance (TEER) assay in HRECs; format: cell-based
# Protocol: Transendothelial electrical resistance assay: ECs are grown as a monolayer on small gold electrodes. The transendothelial electrical resistance, which reflects endothelial barrier function and permeability, is measured using the Electric Cell-Substrate Impedance Sensor (ECIS) system.
# Transendothelial electrical resistance (TEER) assay. HRECs were plated and grew as a monolayer on fibronectin-coated Electric Cell-Substrate Impedance Sensor (ECIS) electrode arrays (Applied Biophysics). 24 hours after transfection with miR-146a mimics, or negative control oligo duplex with scrambled sequences, the cells were treated with IL-1β (10 ng/ml). TEER was recorded for 20 hours before and 24 hours after addition of IL-1β using the ECIS system (Applied Biophysics) (Qiao et al., 2003, 2006; Lum et al., 2003, 2001). When Bay11-7082 was used, HRECs was incubated with Bay11-7082 ([…]) (Sigma) for 30 minutes prior to IL-1β treatment.
# [4] = HRECs treated with scrambled oligo
# [5] = Bay11-7082 3 μM for 30 minutes prior to thrombin
molecule,measurement,setting,value
thrombin,upregulation of miR-146a,NF-κB [1]; thrombin treatment,122%
same,upregulation of miR-146b,NF-κB [1]; thrombin treatment,92%
same,induction of ICAM-1,NF-κB activation; [4],~17 fold
same,induction of VCAM-1,NF-κB activation; [4],~95 fold
same,"NF-κB downstream genes ICAM1, MCP1 and VCAM1",NF-κB activation; HRECs,significantly upregulated
same,leukocyte adhesion,HRECs,significantly increased
mmu-miR-30c (UGUAAACAUCCUACACUCUCAGC; chemistry not fully specified),AVE DCt (STZ),miRNAs in the vitreous,2.37
IL-1β: proinflammatory cytokine used at 10 ng/ml to activate NF-κB,miR-146a expression,NF-κB [2],significantly upregulated
same,NF-κB activation (nuclear translocation of p65),NF-κB p65,activated NF-κb
same,TEER,[3]; IL-1β treatment,significant decrease
Cc1ccc(S(=O)(=O)/C=C/C#N)cc1 [Bay11-7082],decrease of IL-1β-induced upregulation of miR-146a,"NF-κB [2]; rat RECs, IL-1β 10 ng/ml, simultaneous Bay11-7082",~81%
same,TNF-α-induced upregulation of miR-146a,"NF-κB [2]; rat RECs, TNF-α 10 ng/ml, simultaneous Bay11-7082",completely blocked
same,NF-κB activation (nuclear translocation of p65),NF-κB p65,failed to activate NF-κB
same,IL-1β-induced decrease of TEER,[3]; IL-1β 10 ng/ml,prevented
same,inhibition of thrombin-induced miR-146b upregulation,NF-κB [1]; [5],at least 33%
same,thrombin-induced upregulation of miR-146a,NF-κB [1]; [5],completely blocked
TNF-α,miR-146a expression,NF-κB [2],significantly upregulated
same,NF-κB activation (nuclear translocation of p65),NF-κB p65,activated NF-κb
